Measured values reported in patent US6723332B2 (dated 2004).

`O=C(Nc1ccc(OC(F)(F)F)cc1)C1C=Nc2cccc(=O)n21` (stereo not drawn) showed a melting point of 273 to 275 °C.
`CN(C)CCOc1ccc(NC(=O)C2C=Nc3cccc(=O)n32)cc1` (stereo not drawn) showed a melting point of 198 to 210 °C.
For `CCOc1ccc(NC(=O)C2C=Nc3cccc(=O)n32)c(F)c1` (stereo not drawn), the melting point was > 216 °C (dec.).
With `O=C(Nc1cccc(C(F)(F)F)c1F)C1C=Nc2cccc(=O)n21` (stereo not drawn) the melting point was 274 to 277 °C (dec.).
In the case of `Cc1cc(=O)n2c(C(=O)Nc3cc(F)ccc3F)c[nH]c2c1`, the melting point is reported as > 285 °C (dec.).
With `Cc1ccc(F)c(NC(=O)C2C=Nc3cccc(=O)n32)c1` (stereo not drawn) the melting point was 280 to 285 °C (dec.).
